pEC50: −log10 of the molar value.
Biological target: Free fatty acid receptor 1 (Homo sapiens, UniProt O14842)
Assay: Agonist activity at human GPR40 expressed in human 1321N1 cells assessed as IP1 accumulation after 1 hr by HTRF assay
Assay type: functional, cell-based

Free fatty acid receptor 1, sequence (O14842 whole entry): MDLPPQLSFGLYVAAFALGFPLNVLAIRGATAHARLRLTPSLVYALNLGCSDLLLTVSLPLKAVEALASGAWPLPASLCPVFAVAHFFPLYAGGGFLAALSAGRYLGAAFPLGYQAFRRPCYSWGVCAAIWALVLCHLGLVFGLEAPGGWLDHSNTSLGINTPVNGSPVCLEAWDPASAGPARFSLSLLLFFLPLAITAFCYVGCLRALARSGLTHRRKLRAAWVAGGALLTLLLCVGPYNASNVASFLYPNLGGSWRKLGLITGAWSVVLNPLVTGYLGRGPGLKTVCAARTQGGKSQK

| pEC50 | SMILES |
| --- | --- |
| 7.96 | Cc1cc(OCCC(C)(C)O)cc(C)c1-c1ccc(F)c2c1CC[C@H]2Nc1ccc([C@H]2C[C@@H]2C(=O)O)nc1 |
| 8.40 | Cc1cc(-c2cccc(=O)n2C)cc(C)c1-c1ccc(F)c2c1CC[C@H]2Nc1ccc([C@H]2C[C@@H]2C(=O)O)nc1 |
| 8.15 | Cc1cc(OCC2CCOC2)cc(C)c1-c1ccc(F)c2c1CC[C@H]2Nc1ccc([C@H]2C[C@@H]2C(=O)O)nc1 (stereo not given in full) |
| 6.83 | CNC(=O)c1cc(C)c(-c2ccc(F)c3c2CC[C@H]3Nc2ccc([C@H]3C[C@@H]3C(=O)O)nc2)c(C)c1 |
| 8.70 | Cc1cc(-c2nnn(CC(C)(C)O)n2)cc(C)c1-c1ccc(F)c2c1CC[C@H]2Nc1ccc([C@H]2C[C@@H]2C(=O)O)nc1 |

Source: ChEMBL document CHEMBL4196229, “GPR40 Receptor Agonists for the Treatment of Type 2 Diabetes and Related Diseases” (ACS Med Chem Lett, 2018)
